Results taken from PubChem BioAssay (NCI).
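Tested at 5 concentrations; 48 h exposure; 96-well plates; endpoints linearly interpolated, else capped at highest concentration. At the TGI there is no net growth.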

Assays:
Assay in all cases: NCI anticancer screen, dose series, 48 h
HCT-15 colon = tested on: HCT-15 colon
SNB-75 CNS = tested on: SNB-75 CNS
MOLT-4 leukemia = tested on: MOLT-4 leukemia
786-0 renal = tested on: 786-0 renal
SK-MEL-5 melanoma = tested on: SK-MEL-5 melanoma
UO-31 renal = tested on: UO-31 renal
NCI/ADR-RES ovarian = tested on: NCI/ADR-RES ovarian
OVCAR-3 ovarian = tested on: OVCAR-3 ovarian
UACC-257 melanoma = tested on: UACC-257 melanoma
LOX IMVI melanoma = tested on: LOX IMVI melanoma
SK-MEL-28 melanoma = tested on: SK-MEL-28 melanoma
HOP-92 NSCLC = tested on: HOP-92 NSCLC
UACC-62 melanoma = tested on: UACC-62 melanoma
T-47D breast = tested on: T-47D breast
U251 CNS = tested on: U251 CNS
HCC-2998 colon = tested on: HCC-2998 colon
A549 NSCLC = tested on: A549 NSCLC
M14 melanoma = tested on: M14 melanoma
MDA-MB-435 = tested on: MDA-MB-435
A498 renal = tested on: A498 renal
PC-3 prostate = tested on: PC-3 prostate
SK-MEL-2 melanoma = tested on: SK-MEL-2 melanoma
CCRF-CEM leukemia = tested on: CCRF-CEM leukemia
TK-10 renal = tested on: TK-10 renal
HT29 colon = tested on: HT29 colon
DU-145 prostate = tested on: DU-145 prostate
HS 578T breast = tested on: HS 578T breast
BT-549 breast = tested on: BT-549 breast
K-562 leukemia = tested on: K-562 leukemia
HOP-62 NSCLC = tested on: HOP-62 NSCLC
SF-539 CNS = tested on: SF-539 CNS
OVCAR-4 ovarian = tested on: OVCAR-4 ovarian
CAKI-1 renal = tested on: CAKI-1 renal
EKVX NSCLC = tested on: EKVX NSCLC
MDA-MB-231 breast = tested on: MDA-MB-231 breast
SNB-19 CNS = tested on: SNB-19 CNS
MCF7 breast = tested on: MCF7 breast
OVCAR-8 ovarian = tested on: OVCAR-8 ovarian
RXF 393 renal = tested on: RXF 393 renal
SW-620 colon = tested on: SW-620 colon
COLO 205 colon = tested on: COLO 205 colon
NCI-H522 lung = tested on: NCI-H522 lung
KM12 colon = tested on: KM12 colon
NCI-H23 lung = tested on: NCI-H23 lung
ACHN renal = tested on: ACHN renal
SF-268 CNS = tested on: SF-268 CNS
OVCAR-5 ovarian = tested on: OVCAR-5 ovarian
NCI-H460 lung = tested on: NCI-H460 lung
SK-OV-3 ovarian = tested on: SK-OV-3 ovarian
SF-295 CNS = tested on: SF-295 CNS
SN12C renal = tested on: SN12C renal
HCT-116 colon = tested on: HCT-116 colon
IGROV1 ovarian = tested on: IGROV1 ovarian
MALME-3M melanoma = tested on: MALME-3M melanoma
RPMI-8226 leukemia = tested on: RPMI-8226 leukemia
NCI-H226 lung = tested on: NCI-H226 lung

In the case of CCc1c(-c2ccc(OC)cc2)oc(OC)c(C)c1=O, the TGI (HCT-15 colon) is reported as > 100 µM, the TGI (SNB-75 CNS) is reported as > 100 µM and the TGI (MOLT-4 leukemia) is reported as > 100 µM. For the same compound, the TGI (786-0 renal) was > 100 µM, the TGI (SK-MEL-5 melanoma) was > 100 µM and the TGI (UO-31 renal) was > 100 µM. For the same compound, the TGI (NCI/ADR-RES ovarian) was > 100 µM, the TGI (OVCAR-3 ovarian) was > 100 µM and the TGI (UACC-257 melanoma) was > 100 µM. The TGI (LOX IMVI melanoma) was > 100 µM, the TGI (SK-MEL-28 melanoma) was > 100 µM and the TGI (HOP-92 NSCLC) was > 100 µM. For the same compound, the TGI (UACC-62 melanoma) was > 100 µM, the TGI (T-47D breast) was > 100 µM and the TGI (U251 CNS) was > 100 µM. For the same compound, the TGI (HCC-2998 colon) was > 100 µM, the TGI (A549 NSCLC) was > 100 µM and the TGI (M14 melanoma) was > 100 µM. For the same compound, the TGI (MDA-MB-435) was > 100 µM, the TGI (A498 renal) was > 100 µM and the TGI (PC-3 prostate) was > 100 µM. The TGI (SK-MEL-2 melanoma) was > 100 µM, the TGI (CCRF-CEM leukemia) was > 100 µM and the TGI (TK-10 renal) was > 100 µM. The TGI (HT29 colon) was > 100 µM, the TGI (DU-145 prostate) was > 100 µM and the TGI (HS 578T breast) was > 100 µM. For the same compound, the TGI (BT-549 breast) was > 100 µM, the TGI (K-562 leukemia) was > 100 µM and the TGI (HOP-62 NSCLC) was > 100 µM. The TGI (SF-539 CNS) was > 100 µM, the TGI (OVCAR-4 ovarian) was > 100 µM and the TGI (CAKI-1 renal) was > 100 µM. For the same compound, the TGI (EKVX NSCLC) was > 100 µM, the TGI (MDA-MB-231 breast) was > 100 µM and the TGI (SNB-19 CNS) was > 100 µM. The TGI (MCF7 breast) was > 100 µM, the TGI (OVCAR-8 ovarian) was > 100 µM and the TGI (RXF 393 renal) was > 100 µM. For the same compound, the TGI (SW-620 colon) was > 100 µM, the TGI (COLO 205 colon) was > 100 µM and the TGI (NCI-H522 lung) was > 100 µM. For the same compound, the TGI (KM12 colon) was > 100 µM, the TGI (NCI-H23 lung) was > 100 µM and the TGI (ACHN renal) was > 100 µM. The TGI (SF-268 CNS) was > 100 µM, the TGI (OVCAR-5 ovarian) was > 100 µM and the TGI (NCI-H460 lung) was > 100 µM. For the same compound, the TGI (SK-OV-3 ovarian) was > 100 µM, the TGI (SF-295 CNS) was > 100 µM and the TGI (SN12C renal) was > 100 µM. The TGI (HCT-116 colon) was > 100 µM and the TGI (IGROV1 ovarian) was > 100 µM.
For C=Cn1c([N+](=O)[O-])cnc1/C=C/c1ccc(C(=O)OCCN2CCOCC2)cc1, the TGI (HCT-15 colon) was > 100 µM, the TGI (SNB-75 CNS) was > 100 µM and the TGI (MOLT-4 leukemia) was > 100 µM. The TGI (786-0 renal) was > 100 µM, the TGI (SK-MEL-5 melanoma) was > 100 µM and the TGI (NCI/ADR-RES ovarian) was > 100 µM. The TGI (OVCAR-3 ovarian) was > 100 µM, the TGI (UACC-257 melanoma) was > 100 µM and the TGI (MALME-3M melanoma) was > 100 µM. The TGI (LOX IMVI melanoma) was > 100 µM, the TGI (SK-MEL-28 melanoma) was > 100 µM and the TGI (HOP-92 NSCLC) was > 100 µM. The TGI (UACC-62 melanoma) was > 100 µM, the TGI (T-47D breast) was > 100 µM and the TGI (U251 CNS) was > 100 µM. For the same compound, the TGI (A549 NSCLC) was > 100 µM, the TGI (M14 melanoma) was > 100 µM and the TGI (MDA-MB-435) was > 100 µM. The TGI (RPMI-8226 leukemia) was 78.4 µM, the TGI (A498 renal) was > 100 µM and the TGI (PC-3 prostate) was > 100 µM. For the same compound, the TGI (SK-MEL-2 melanoma) was > 100 µM, the TGI (CCRF-CEM leukemia) was > 100 µM and the TGI (TK-10 renal) was > 100 µM. For the same compound, the TGI (HT29 colon) was > 100 µM, the TGI (DU-145 prostate) was > 100 µM and the TGI (HS 578T breast) was > 100 µM. For the same compound, the TGI (BT-549 breast) was > 100 µM, the TGI (K-562 leukemia) was > 100 µM and the TGI (HOP-62 NSCLC) was > 100 µM. For the same compound, the TGI (SF-539 CNS) was > 100 µM, the TGI (OVCAR-4 ovarian) was > 100 µM and the TGI (CAKI-1 renal) was > 100 µM. For the same compound, the TGI (EKVX NSCLC) was > 100 µM, the TGI (MDA-MB-231 breast) was > 100 µM and the TGI (SNB-19 CNS) was > 100 µM. For the same compound, the TGI (MCF7 breast) was > 100 µM, the TGI (OVCAR-8 ovarian) was > 100 µM and the TGI (RXF 393 renal) was > 100 µM. The TGI (SW-620 colon) was > 100 µM, the TGI (COLO 205 colon) was > 100 µM and the TGI (NCI-H522 lung) was > 100 µM. The TGI (KM12 colon) was > 100 µM, the TGI (NCI-H226 lung) was > 100 µM and the TGI (NCI-H23 lung) was > 100 µM. The TGI (ACHN renal) was > 100 µM, the TGI (SF-268 CNS) was > 100 µM and the TGI (OVCAR-5 ovarian) was > 100 µM. For the same compound, the TGI (NCI-H460 lung) was > 100 µM, the TGI (SK-OV-3 ovarian) was > 100 µM and the TGI (SF-295 CNS) was > 100 µM. For the same compound, the TGI (SN12C renal) was > 100 µM, the TGI (HCT-116 colon) was > 100 µM and the TGI (IGROV1 ovarian) was > 100 µM.
